{
  "source": "patent US5180712A",
  "about": "“Petide antidementia and nootropic agents” (Fujirebio Kabushiki Kaisha, priority 1988, dated 1993)",
  "key": {"male Wistar rats [1]": {"tested_on": "male Wistar rats", "assay": "one-trial passive avoidance: facilitation effect of memory consolidation", "assay_type": "in vivo, rat", "settings": "for Effect (ratio of the response latent period of each group to that of the control groups): retention tested 24 hours later, latency max 600 seconds", "protocol": "The effect of peptides of the invention on memory consolidation was evaluated by conducting one-trial passive avoidance experiments using male Wistar rats in accordance with the method described by Burbach et al., Science, vol. 221, pp. 1310-1312, 1983. The apparatus was composed of an illuminated room and a dark room, and their floors were made of a stainless-steel grid. The rats placed in the illuminated room could freely enter the dark room. Upon entering the dark room the rats received an electro-shock. Retention of passive avoidance behavior to the electro-shock was determined by the measurement of a response latent period, i.e. the period required for the rat which experienced the electro-shock to re-enter the dark room from the time at which the rat was placed in the illuminated room after predetermined intervals. The rats were treated with the peptides of the invention obtained in the aforementioned Example 1 to 4 or a physiological saline solution by means of a subcutaneous injection immediately after receiving the electro-shock (0.25 mA). Then 24 hours later, the retention of the memory of the electro-shock was tested. […] Comparison Compound 2 (known peptide): [drawing 14] For each group, 6 to 8 rats were tested. The response latent period was measured up to a maximum of 600 seconds. The dose and the effect (the ratio of the response latent period of each group to that of the control groups, shown as %) of the peptides obtained in each example and the peptides of each comparison compound are set forth in Table 1."}, "male Wistar rats [2]": {"tested_on": "male Wistar rats", "assay": "one-trial passive avoidance: improvement effect of experimental retrograde amnesia by cycloheximide", "assay_type": "in vivo, rat", "settings": "1 hr before electro-shock (0.5 mA), cycloheximide 2.7 to 3.0 mg/kg s.c. after shock, tested at 48 hours", "protocol": "The effect of peptides of the invention on memory consolidation was evaluated by conducting one-trial passive avoidance experiments using male Wistar rats in accordance with the method described by Burbach et al., Science, vol. 221, pp. 1310-1312, 1983. The apparatus was composed of an illuminated room and a dark room, and their floors were made of a stainless-steel grid. The rats placed in the illuminated room could freely enter the dark room. Upon entering the dark room the rats received an electro-shock. Retention of passive avoidance behavior to the electro-shock was determined by the measurement of a response latent period, i.e. the period required for the rat which experienced the electro-shock to re-enter the dark room from the time at which the rat was placed in the illuminated room after predetermined intervals. The rats received an electro-shock (0.5 mA) one hr. after the administration of the peptides of the invention or a physiological saline solution. Immediately after receiving the electro-shock, the rats were treated with 2.7 to 3.0 mg/kg of cycloheximide or the saline solution by subcutaneous injection. At 48 hours after the administration was made, memory retention of the rats was tested. […] The average response latent period of rats administered with each peptide of the invention and treated with cycloheximide were compared with that of the control group. Six to eight rats were used for each group tested. The response latent period was measured up to a maximum of 600 seconds. The dose and the effect (the ratio of response latent period of each group to that of the control groups, shown as %) of the peptides obtained in each example and the peptides of each comparison example are set forth in Table 2."}, "[3]": {"settings": "dose 1 ng/kg subcutaneous immediately after electro-shock (0.25 mA)"}},
  "note": "Where a SMILES comes first, the peptide text is derived from it. Bridges are numbered along the chain shown (N, C = ends). Roman numbers before positions name the chains, in order. [ ]: non-standard residue; d: D form. The star is where a group is joined. Cys(free,S-linked) = N[C@@H](CS*)C(=O)O; pGlu = O=C1CC[C@@H](C(=O)O)N1",
  "data": [
    {"compound": "N=C(N)NCCC[C@H](NC(=O)[C@@H]1CCCN1C(=O)[C@H](CSSC[C@H](NC(=O)[C@H](CC(N)=O)NC(=O)[C@@H]1CCC(=O)N1)C(=O)N1CCC[C@H]1C(=O)N[C@@H](CCCNC(=N)N)C(=O)NCC(N)=O)NC(=O)[C@H](CC(N)=O)NC(=O)[C@@H]1CCC(=O)N1)C(=O)NCC(N)=O", "note": "[Comparison 2, reference compound] (I: [pGlu]NCPRG-NH2 / II: [pGlu]NCPRG-NH2; disulfide I:3-II:3)", "values": [
      {"measurement": "Effect (ratio of the response latent period of each group to that of the control groups)", "setting": "male Wistar rats [1]; dose 10 ng/kg subcutaneous immediately after electro-shock (0.25 mA)", "result": 249, "unit": "%"},
      {"measurement": "Effect (ratio of response latent period of each group to that of the control groups)", "setting": "male Wistar rats [2]; dose 100 ng/kg", "result": 503, "unit": "%"}
    ]},
    {"compound": "N=C(N)NCCC[C@H](NC(=O)[C@@H]1CCCN1C(=O)[C@H](CS)NC(=O)[C@@H](N)CC(N)=O)C(=O)O", "note": "[Example 4, H-Asn-Cys-Pro-Arg-OH acetate] (H-NCPR-OH)", "values": [
      {"measurement": "Effect (ratio of the response latent period of each group to that of the control groups)", "setting": "male Wistar rats [1]; [3]", "result": 316, "unit": "%"},
      {"measurement": "Effect (ratio of response latent period of each group to that of the control groups)", "setting": "male Wistar rats [2]; dose 1 ng/kg", "result": 320, "unit": "%"}
    ]},
    {"compound": "N=C(N)NCCC[C@H](NC(=O)[C@@H]1CCCN1C(=O)[C@H](CS)NC(=O)[C@H](CC(N)=O)NC(=O)[C@@H]1CCC(=O)N1)C(=O)NCC(N)=O", "note": "[Example 2, pGlu-Asn-Cys-Pro-Arg-Gly--NH2 acetate] ([pGlu]NCPRG-NH2)", "values": [
      {"measurement": "Effect (ratio of the response latent period of each group to that of the control groups)", "setting": "male Wistar rats [1]; [3]", "result": 295, "unit": "%"},
      {"measurement": "Effect (ratio of response latent period of each group to that of the control groups)", "setting": "male Wistar rats [2]; dose 1 ng/kg", "result": 633, "unit": "%"}
    ]},
    {"compound": "N=C(N)NCCC[C@H](NC(=O)[C@H]1CCCN1C(=O)[C@H](CSSC[C@H](N)C(=O)O)NC(=O)[C@H](CC(N)=O)NC(=O)[C@@H]1CCC(=O)N1)C(=O)NCC(N)=O", "note": "[Example 3] ([pGlu]NC(Cys(free,S-linked))[dP]RG-NH2)", "values": [
      {"measurement": "Effect (ratio of the response latent period of each group to that of the control groups)", "setting": "male Wistar rats [1]; [3]", "result": 253, "unit": "%"},
      {"measurement": "Effect (ratio of response latent period of each group to that of the control groups)", "setting": "male Wistar rats [2]; dose 1 ng/kg", "result": 380, "unit": "%"}
    ]},
    {"compound": "N=C(N)NCCC[C@@H](NC(=O)[C@@H]1CCCN1C(=O)[C@H](CSSC[C@H](N)C(=O)O)NC(=O)[C@H](CC(N)=O)NC(=O)[C@@H]1CCC(=O)N1)C(=O)NCC(N)=O", "note": "[Example 1] ([pGlu]NC(Cys(free,S-linked))P[dR]G-NH2)", "values": [
      {"measurement": "Effect (ratio of the response latent period of each group to that of the control groups)", "setting": "male Wistar rats [1]; [3]", "result": 267, "unit": "%"},
      {"measurement": "dose giving the same effect, as fraction of the dose of Comparison Compound 1", "setting": "male Wistar rats [1]; passive avoidance tests, versus Comparison Compound 1", "result": "1/10"},
      {"measurement": "Effect (ratio of response latent period of each group to that of the control groups)", "setting": "male Wistar rats [2]; dose 1 ng/kg", "result": 302, "unit": "%"}
    ]}
  ]
}
